Experimental data as given in US20020137929A1, “1 - (3-heterocyclylphenyl) isothiourea, -isourea, -guanidine and -amidine herbicidal agents” (Intellectual Property Department, BASF Aktiengesellschaft, priority 1998, published 2002).

Legend:
CYPIR (Rice Flatsedge) = assay: Postemergence weed control under flooded paddy conditions; type: in vivo, Cyperus iria; conditions: postemergence weeds, rated 3 to 4 weeks after treatment
Outline: (§1)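 Flood-water application, about 0.0313–0.500 kg/ha a.i. in aqueous/acetone 50/50 v/v; water depth 1.5–3 cm throughout. Weeds 3–5 cm, rice 1.5–2.5 leaf. Greenhouse; 0–9 visual rating vs control at 3–4 wk.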

SETVI (Foxtail, Green) = assay: Postemergence herbicidal evaluation; type: in vivo, Setaria viridis; conditions: postemergence
Outline: (§2)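 Visual 0–9 rating versus control (stand, vigor, malformation, size, chlorosis, overall appearance), taken four to five weeks post-spray. Two-week-old seedlings received roughly 0.0156–0.500 kg/ha active in acetone/water (50/50) with 0.5% TWEEN 20 via nozzle at 40 psi.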

CYPSE (Flatsedge) = assay: Preemergence weed control under flooded paddy conditions; type: in vivo, Cyperus serotinus; conditions: rated 3-4 weeks after treatment
Outline: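 Visual injury scored 0-9 against control three to four weeks post-treatment, greenhouse-grown. Application: acetone/water (50/50) solutions dosed directly into flood water (1.5-3 cm over silt loam, planted top 0.5 cm), roughly 0.0313 to 0.500 kg/ha active ingredient.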

ECHCG (Barnyardgrass) = assay: Preemergence herbicidal evaluation; type: in vivo, Echinochloa crus-galli; conditions: rated 4-5 weeks after treatment
Outline: (§3)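 Each species is sown separately in potting soil over roughly an inch of soil before any emergence. The soil surface then receives an aqueous acetone spray delivering about 0.0156 to 0.500 kg/ha of compound. After four to five weeks, injury is scored from 0 to 9 relative to a control.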

ABUTH (Velvetleaf) [1] = assay: Preemergence herbicidal evaluation; type: in vivo, Abutilon theophrasti; conditions: rated 4-5 weeks after treatment
Outline: as §3

[2] = test system: IPOHE (Morningglory, Ivyleaf); assay: Preemergence herbicidal evaluation; type: in vivo, Ipomoea hederacea; conditions: rated 4-5 weeks after treatment
Outline: as §3

[3] = test system: GLXMAW (Soybean, Williams); assay: Postemergence herbicidal evaluation; type: in vivo, Glycine max, (L.) Merr. cv Williams; conditions: postemergence
Outline: as §2

ZEAMX (Corn, Field) = assay: Postemergence herbicidal evaluation; type: in vivo, Zea mays; conditions: postemergence
Outline: as §2

[4] = test system: ECHORC (Watergrass (Calif.)); assay: Postemergence weed control under flooded paddy conditions; type: in vivo, Echinochloa oryzoides; conditions: postemergence weeds, rated 3 to 4 weeks after treatment
Outline: as §1

CASOB (Sicklepod) = assay: Preemergence herbicidal evaluation; type: in vivo, Cassia obtusifolia; conditions: rated 4-5 weeks after treatment
Outline: as §3

AMBEL (Ragweed, Common) = assay: Preemergence herbicidal evaluation; type: in vivo, Ambrosia artemisifolia; conditions: rated 4-5 weeks after treatment
Outline: as §3

[5] = test system: IPOHE (Morningglory, Ivyleaf); assay: Postemergence herbicidal evaluation; type: in vivo, Ipomoea hederacea; conditions: postemergence
Outline: as §2

ABUTH (Velvetleaf) [6] = assay: Postemergence herbicidal evaluation; type: in vivo, Abutilon theophrasti; conditions: postemergence
Outline: as §2

[7] = test system: ECHORC (Watergrass (Calif.)); assay: Preemergence weed control under flooded paddy conditions; type: in vivo, Echinochloa oryzoides; conditions: rated 3-4 weeks after treatment
Outline: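 Herbicidal effect is scored visually on a 0-9 scale against an untreated control, three to four weeks after compounds are pipetted into the flood water (1.5 to 3 cm deep) over seeds planted in silt loam at 0.5 cm depth. Rates: about 0.0313 to 0.500 kg/ha.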

`C#CCOC(=O)CC1SC(=Nc2cc(-n3c(=O)cc(C(F)(F)F)n(C)c3=O)c(F)cc2Cl)N(CC=C)C1=O` (centres unmarked) [Compound 67, 2-Propynyl 3-allyl-2-{{2-chloro-5-[3,6-dihydro-3-methyl-2,6-dioxo-4-(trifluoromethyl)-1(2H)-pyrimidinyl]-4-fluorophenyl}imino}-4-oxo-5-thiazolidineacetate] was tested, and the “Herbicidal rating CYPIR” value (CYPIR (Rice Flatsedge); Rate 0.0313 kg/ha) was 5.0, the “Herbicidal rating CYPIR” value (CYPIR (Rice Flatsedge); Rate 0.0625 kg/ha) was 5.0 and the “Herbicidal rating CYPIR” value (CYPIR (Rice Flatsedge); Rate 0.1250 kg/ha) was 5.0. For the same molecule, the “Herbicidal rating CYPIR” value (CYPIR (Rice Flatsedge); Rate 0.2500 kg/ha) was 8.0, the SETVI herbicidal rating (SETVI (Foxtail, Green); rate 0.0158 kg/ha) was 9.0 and the SETVI herbicidal rating (SETVI (Foxtail, Green); rate 0.0315 kg/ha) was 9.0. The SETVI herbicidal rating (SETVI (Foxtail, Green); rate 0.0630 kg/ha) was 9.0, the “CYPSE herbicidal effect rating” value (CYPSE (Flatsedge); 0.0313 kg/ha) was 0.0 and the “CYPSE herbicidal effect rating” value (CYPSE (Flatsedge); 0.0625 kg/ha) was 3.0. The “CYPSE herbicidal effect rating” value (CYPSE (Flatsedge); 0.1250 kg/ha) was 3.0, the “CYPSE herbicidal effect rating” value (CYPSE (Flatsedge); 0.2500 kg/ha) was 3.0 and the “Preemergence herbicidal rating ECHCG” value (ECHCG (Barnyardgrass); rate 0.0156 kg/ha) was 0.0. For the same molecule, the “Preemergence herbicidal rating ECHCG” value (ECHCG (Barnyardgrass); rate 0.0313 kg/ha) was 0.0, the “Preemergence herbicidal rating ECHCG” value (ECHCG (Barnyardgrass); rate 0.0625 kg/ha) was 0.0 and the “Preemergence herbicidal rating ECHCG” value (ECHCG (Barnyardgrass); rate 0.1250 kg/ha) was 1.0. The “Preemergence herbicidal rating ECHCG” value (ECHCG (Barnyardgrass); rate 0.2500 kg/ha) was 1.0, the “Preemergence herbicidal rating ABUTH” value (ABUTH (Velvetleaf) [1]; rate 0.0156 kg/ha) was 1.0 and the “Preemergence herbicidal rating ABUTH” value (ABUTH (Velvetleaf) [1]; rate 0.0313 kg/ha) was 9.0. For the same molecule, the “Preemergence herbicidal rating ABUTH” value (ABUTH (Velvetleaf) [1]; rate 0.0625 kg/ha) was 9.0, the “Preemergence herbicidal rating ABUTH” value (ABUTH (Velvetleaf) [1]; rate 0.1250 kg/ha) was 7.0 and the “Preemergence herbicidal rating ABUTH” value (ABUTH (Velvetleaf) [1]; rate 0.2500 kg/ha) was 9.0. For the same molecule, the “Preemergence herbicidal rating IPOHE” value ([2]; rate 0.0156 kg/ha) was 0.0, the “Preemergence herbicidal rating IPOHE” value ([2]; rate 0.0313 kg/ha) was 0.0 and the “Preemergence herbicidal rating IPOHE” value ([2]; rate 0.0625 kg/ha) was 2.0. The “Preemergence herbicidal rating IPOHE” value ([2]; rate 0.1250 kg/ha) was 3.0, the “Preemergence herbicidal rating IPOHE” value ([2]; rate 0.2500 kg/ha) was 6.0 and the GLXMAW herbicidal rating ([3]; rate 0.0158 kg/ha) was 8.5. The GLXMAW herbicidal rating ([3]; rate 0.0315 kg/ha) was 7.5, the GLXMAW herbicidal rating ([3]; rate 0.0630 kg/ha) was 7.5 and the ZEAMX herbicidal rating (ZEAMX (Corn, Field); rate 0.0158 kg/ha) was 7.5. For the same molecule, the ZEAMX herbicidal rating (ZEAMX (Corn, Field); rate 0.0315 kg/ha) was 8.0, the ZEAMX herbicidal rating (ZEAMX (Corn, Field); rate 0.0630 kg/ha) was 8.0 and the “Herbicidal rating ECHORC” value ([4]; Rate 0.0313 kg/ha) was 0.0. For the same molecule, the “Herbicidal rating ECHORC” value ([4]; Rate 0.0625 kg/ha) was 4.0, the “Herbicidal rating ECHORC” value ([4]; Rate 0.1250 kg/ha) was 5.0 and the “Herbicidal rating ECHORC” value ([4]; Rate 0.2500 kg/ha) was 5.0. For the same molecule, the “Preemergence herbicidal rating CASOB” value (CASOB (Sicklepod); rate 0.0156 kg/ha) was 0.0, the “Preemergence herbicidal rating CASOB” value (CASOB (Sicklepod); rate 0.0313 kg/ha) was 0.0 and the “Preemergence herbicidal rating CASOB” value (CASOB (Sicklepod); rate 0.0625 kg/ha) was 0.0. The “Preemergence herbicidal rating CASOB” value (CASOB (Sicklepod); rate 0.1250 kg/ha) was 2.0, the “Preemergence herbicidal rating CASOB” value (CASOB (Sicklepod); rate 0.2500 kg/ha) was 2.0 and the “Preemergence herbicidal rating AMBEL” value (AMBEL (Ragweed, Common); rate 0.0156 kg/ha) was 0.0. For the same molecule, the “Preemergence herbicidal rating AMBEL” value (AMBEL (Ragweed, Common); rate 0.0313 kg/ha) was 0.0, the “Preemergence herbicidal rating AMBEL” value (AMBEL (Ragweed, Common); rate 0.0625 kg/ha) was 3.0 and the “Preemergence herbicidal rating AMBEL” value (AMBEL (Ragweed, Common); rate 0.1250 kg/ha) was 7.0. The “Preemergence herbicidal rating AMBEL” value (AMBEL (Ragweed, Common); rate 0.2500 kg/ha) was 7.0, the IPOHE herbicidal rating ([5]; rate 0.0158 kg/ha) was 9.0 and the IPOHE herbicidal rating ([5]; rate 0.0315 kg/ha) was 9.0. The IPOHE herbicidal rating ([5]; rate 0.0630 kg/ha) was 9.0, the ABUTH herbicidal rating (ABUTH (Velvetleaf) [6]; rate 0.0158 kg/ha) was 5.0 and the ABUTH herbicidal rating (ABUTH (Velvetleaf) [6]; rate 0.0315 kg/ha) was 9.0. The ABUTH herbicidal rating (ABUTH (Velvetleaf) [6]; rate 0.0630 kg/ha) was 9.0, the “ECHORC herbicidal effect rating” value ([7]; 0.0313 kg/ha) was 0.0 and the “ECHORC herbicidal effect rating” value ([7]; 0.0625 kg/ha) was 4.0. The “ECHORC herbicidal effect rating” value ([7]; 0.1250 kg/ha) was 5.0 and the “ECHORC herbicidal effect rating” value ([7]; 0.2500 kg/ha) was 5.0.
